In test [1] the target is AQ variant of truncated human STING protein, amino acids 155-379 (Homo sapiens (Human), UniProt Q86WV6, G230A/H232R/R293Q). Briefly: Human AQ STING [3H] 2′,3′-cGAMP scintillation proximity competition binding assay. Particulars: read-out: Human AQ Binding IC50. The text has this: A human STING [^3H] 2′,3′-cGAMP scintillation proximity competition binding assay was utilized to detect binding of compounds to STING protein. […] The protein encoding plasmid contained a HIS tag, followed by an Avi tag and then a SUMO tag, which were followed by the STING coding sequence within the pET-28a (+) vector. The plasmid was transfected into a BL21 (DE3)/BirA E. coli co-expression strain. Protein was purified from the bacterial lysate using a cobalt-affinity column. The purified protein was dialyzed against PBS and then 20% glycerol was added prior to storage at −80° C.
Sequence of AQ variant of truncated human STING protein, amino acids 155-379 (Q86WV6 155-379 G230A/H232R/R293Q): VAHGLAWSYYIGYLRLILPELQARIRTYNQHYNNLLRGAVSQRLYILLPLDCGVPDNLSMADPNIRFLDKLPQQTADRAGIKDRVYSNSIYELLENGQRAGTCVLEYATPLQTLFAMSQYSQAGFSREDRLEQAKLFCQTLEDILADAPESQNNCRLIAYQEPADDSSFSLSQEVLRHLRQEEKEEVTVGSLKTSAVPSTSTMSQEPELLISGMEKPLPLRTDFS
2′,3′-cGAMP in assay buffer (50 mM Tris pH 7.5, 100 mM NaCl, 0.1% Fatty Acid Free BSA). Test compounds (2.5 μL) were added to the plate first followed by a 25 μL mixture of STING protein, streptavidin PVT SPA beads (Perkin Elmer) and 10 μL [^3H] 2′,3′-cGAMP. Plates were incubated at room temperature for 18 hrs and read on a Wallac MicroBeta TriLux (Perkin Elmer).
For orientation: Scintillation proximity formats need no separation of bound from free tracer.

In test [2] the test system is STING pathway, THP1 cells. In words: Human IFN-α/β induction assay (THP1 supernatants on HEK-Blue IFN-α/β reporter cells). Format: cell-based. Particulars: THP1 cells 5 hrs, HEK-Blue reporter cells 24 hrs.
Protocol: Genetically engineered human type-1 Interferons (IFN-α/β) sensor cells-HEK Blue™ IFNα/β cells (Invivogen) were employed to measure the type-1 IFNs produced by THP1 cells that are treated with activators of STING. The human embryonic (HEK) Blue™ cells are specially designed to monitor the activation of JAK/STAT pathway induced by type 1 IFNs. Briefly, THP1 cells are treated with compounds for 5 hrs. In the second step, supernatants of THP1 cells are transferred to HEK Blue™ IFNα/β reporter cells and incubated for 24 hrs. The secreted embryonic alkaline phosphatase (SEAP) activity in the supernatants of HEK blue IFNα/3 reporter cells is measured and used to determine the quantities of IFNs.
HEK-Blue IFN-α/β reporter cells (Invivogen) were used to measure the secretion of IFN-α/β into culture supernatants of THP1 cells following STING pathway activation. In the first step, THP1 cells were cultured in presence of STING activators for 5 hrs at 37° C., in a 5% CO2 tissue culture incubator, which facilitates the release of IFN-α/β into the supernatants. In the second step, cell supernatants from THP1 cells were transferred to HEK-Blue IFN-α/β reporter cells and incubated at 37° C., in a 5% CO2 incubator for 24 hrs. HEK-Blue IFN-α/β reporter cells are specifically designed to monitor the activation of JAK-STAT pathway activation by type 1 IFNs. These cells express a secreted embryonic alkaline phosphatase (SEAP) reporter gene under the control of ISG54 promoter, which is a well-known interferon stimulatory gene activated by type 1 IFNs. Upon IFN-α/β stimulation, HEK-Blue IFN-α/β reporter cells activate the JAK-STAT pathway and subsequently the expression of the reporter gene. SEAP which is secreted in the supernatant is easily detectable using alkaline phosphatase detection medium (Quanti-Blue reagent from Invivogen).
These assays were run by adding 2 μL of compound stock solution to tissue culture treated 384-well plates with electronic pipettes. Compounds were diluted in autoclaved sterile water, initially spotted on the intermediate dilution plate and then to the assay plate. […]
Test [3] has as its system STING signaling, RAW-Dual reporter cells. In words: Measurement of mouse IFN-β (ELISA). Format: cell-based. In general terms: ELISA stands for enzyme-linked immunosorbent assay.
Description: Mouse Interferon-β (IFN-β) in the supernatants of murine macrophages treated with STING activators was quantified using sandwich enzyme linked immunosorbent assay (ELISA). Briefly, IFN-β binds to plates coated with antibody and detection is accomplished using a detection antibody followed by streptavidin conjugated to horseradish peroxidase. Tetramethyl-benzidine is used as the substrate in this kit (PBL Assay Science). […] In this invention, mouse IFN-β ELISA is used to determine the potency of compound on STING pathway activation in mouse macrophages.
Murine macrophage derived cell line RAW-Dual reporter cells (Invivogen) were used to measure the IFN-β produced by STING signaling activation. Briefly, 20,000 cells in 27 μL were seeded into tissue culture treated 384-well plate that contained 3 μL of test compound. Cells were incubated at 37° C., in a 5% CO2 incubator for 5.5 hours. Supernatants from treated cells were diluted 20-fold and prior to measurement of IFN-β levels using ELISA kit (PBL Assay Science). 100 μL of diluted sample was added to ELISA plate. Plates were incubated at RT for 1 hour with shaking at 650 rpm. Post incubation, samples were aspirated from wells and the wells were washed 4 times. Diluted antibody (50 μL) was added to plates and incubated at RT for 30 minutes with shaking, followed by aspiration of antibody and 4× washes. Diluted HRP (horseradish peroxidase) solution (50 μL) was added and incubated for 10 minutes, followed by aspiration of the solution and 4× wash steps. After the final wash steps, plates were incubated with 100 μL of TMB (tetramethyl benzidine) substrate for 10 minutes, followed by addition of 100 μL of stop solution and plates were read on Envision plate reader for optical density.
Test [4] concerns CT-26 tumor. Briefly: CT-26 tumor bearing mice, intra-tumoral treatment and re-challenge. The following applies: 50 μg intra-tumoral Days 0, 3, 7.

The results in this text go back to patent publication US11161864B2, “Sting agonists” (Venenum Biodesign, LLC, priority 2018, dated 2021).

In general, IC50 refers to the concentration needed to halve the response being measured. What is called EC50 is the midpoint of the concentration-response curve. A high value points to a less potent agent. Take `Nc1nc2c(ncn2[C@@H]2O[C@@H]3COP(=O)(S)OCCn4c(nc5cncnc54)COP(=O)(S)O[C@@H]2[C@@H]3F)c(=O)[nH]1` (single isomer, unassigned) [Example 1D]: the IC50 in test [1] was below 1 µM. Also, the EC50 is below 5 µM in test [2] (Homo sapiens, THP-1) and above 5 µM in test [3].
As for `Nc1ncnc2c1ncn2[C@@H]1O[C@@H]2COP(=O)([S-])O[C@@H]3[C@H](O)[C@@H](COP([O-])(=S)O[C@H]2[C@H]1O)O[C@H]3n1cnc2c(N)ncnc21.[Na+].[Na+]` (stereo partly drawn) [ADU-S100, reference compound], the EC50 in test [2] was above 10 µM; in test [3] it was above 5 µM. Moreover, the “Number of surviving mice” value in test [4] (Day 0), in test [4] (Day 3), in test [4] (Day 7), in test [4] (Day 10), in test [4] (Day 14) and in test [4] (Day 17) was 10/10 in each case. Moreover, the results for the “Number of surviving mice” value in test [4] (Day 20), in test [4] (Day 23) and in test [4] (Day 35) were 10/10, 7/10 and 1/10, respectively. Also, the “animals with complete regression of the tumors” value in test [4] (by Day 30) is “None”.
